In the NIST ThermoML archive (doi:10.1016/j.jct.2011.02.008):

Experiment: xn = mol fraction of the nth substance listed
Details: Liquid, Vibrating tube method

COC(=O)c1ccccc1 [methyl benzoate] + CCCCCCO
mass density [kg/m3]
Details | x1 = 0.1004 | x1 = 0.2007 | x1 = 0.3007 | x1 = 0.4013 | x1 = 0.5005 | x1 = 0.6009 | x1 = 0.7 | x1 = 0.8008 | x1 = 0.9009
318.15 K, 30000 kPa | 846.9 | 872.9 | 899.1 | 925.4 | 951.5 | 977.9 | 1003.9 | 1030.5 | 1056.8
318.15 K, 35000 kPa | 849.9 | 875.9 | 902.1 | 928.4 | 954.5 | 980.9 | 1006.9 | 1033.5 | 1059.8
318.15 K, 40000 kPa | 852.8 | 878.8 | 905.1 | 931.4 | 957.4 | 983.8 | 1009.8 | 1036.4 | 1062.7
318.15 K, 45000 kPa | 855.7 | 881.7 | 907.9 | 934.3 | 960.3 | 986.7 | 1012.7 | 1039.3 | 1065.6
318.15 K, 50000 kPa | 858.4 | 884.5 | 910.7 | 937.1 | 963.1 | 989.5 | 1015.5 | 1042.1 | 1068.4
318.15 K, 55000 kPa | 861.1 | 887.2 | 913.4 | 939.8 | 965.8 | 992.2 | 1018.2 | 1044.6 | 1071.1
318.15 K, 60000 kPa | 863.6 | 889.6 | 915.9 | 942.3 | 968.3 | 994.9 | 1020.7 | 1047.2 | 1073.6
328.15 K, 100 kPa | 818.7 | 844.4 | 870.4 | 896.7 | 922.5 | 948.8 | 974.9 | 1001.4 | 1027.8
328.15 K, 1000 kPa | 819.4 | 845.1 | 871.1 | 897.4 | 923.2 | 949.5 | 975.6 | 1002.1 | 1028.5
328.15 K, 5000 kPa | 822.6 | 848.3 | 874.3 | 900.5 | 926 | 952.6 | 978.6 | 1005.1 | 1031.5
328.15 K, 10000 kPa | 826.4 | 852.1 | 878.1 | 904.3 | 930.1 | 956.3 | 982.2 | 1008.7 | 1035.1
328.15 K, 15000 kPa | 830 | 855.7 | 881.7 | 907.8 | 933.7 | 959.9 | 985.8 | 1012.3 | 1038.6
328.15 K, 20000 kPa | 833.5 | 859.2 | 885.2 | 911.3 | 937.2 | 963.3 | 989.2 | 1015.7 | 1042
328.15 K, 25000 kPa | 836.9 | 862.6 | 888.6 | 914.6 | 940.5 | 966.6 | 992.5 | 1019 | 1045.3
328.15 K, 30000 kPa | 840.1 | 865.8 | 891.8 | 917.9 | 943.7 | 969.9 | 995.7 | 1022.2 | 1048.5
328.15 K, 35000 kPa | 843.3 | 869 | 895 | 921.1 | 946.9 | 973 | 998.9 | 1025.3 | 1051.6
328.15 K, 40000 kPa | 846.3 | 872 | 898 | 924.1 | 950 | 976 | 1001.9 | 1028.3 | 1054.6
328.15 K, 45000 kPa | 849.2 | 874.9 | 901 | 927.1 | 952.9 | 979 | 1004.9 | 1031.3 | 1057.6
328.15 K, 50000 kPa | 852.1 | 877.8 | 903.9 | 930 | 955.8 | 981.9 | 1007.8 | 1034.2 | 1060.5
328.15 K, 55000 kPa | 854.9 | 880.6 | 906.7 | 932.8 | 958.7 | 984.8 | 1010.7 | 1037.1 | 1063.3
328.15 K, 60000 kPa | 857.4 | 883.2 | 908.8 | 935.6 | 960.6 | 987.4 | 1013.3 | 1039.6 | 1066.1
338.15 K, 100 kPa | 810.7 | 836.2 | 862 | 888 | 913.7 | 939.7 | 965.6 | 992 | 1018.4
338.15 K, 1000 kPa | 811.4 | 837 | 862.7 | 888.7 | 914.4 | 940.4 | 966.3 | 992.7 | 1019.1
338.15 K, 5000 kPa | 814.9 | 840.4 | 866.1 | 892 | 917.7 | 943.7 | 969.5 | 996 | 1022.3
338.15 K, 10000 kPa | 818.9 | 844.3 | 870.1 | 896 | 921.6 | 947.6 | 973.4 | 999.7 | 1026
338.15 K, 15000 kPa | 822.7 | 848.2 | 873.8 | 899.7 | 925.4 | 951.4 | 977.2 | 1003.4 | 1029.7
338.15 K, 20000 kPa | 826.4 | 851.8 | 877.5 | 903.4 | 929.1 | 955 | 980.7 | 1007 | 1033.3
338.15 K, 25000 kPa | 829.9 | 855.3 | 881 | 906.9 | 932.5 | 958.5 | 984.2 | 1010.5 | 1036.7
338.15 K, 30000 kPa | 833.3 | 858.7 | 884.4 | 910.3 | 935.9 | 961.8 | 987.5 | 1013.8 | 1040
338.15 K, 35000 kPa | 836.5 | 862 | 887.7 | 913.6 | 939.2 | 965.1 | 990.8 | 1017.1 | 1043.3
338.15 K, 40000 kPa | 839.7 | 865.1 | 890.9 | 916.8 | 942.4 | 968.3 | 994 | 1020.2 | 1046.4
338.15 K, 45000 kPa | 842.7 | 868.2 | 894 | 919.9 | – | – | – | – | –
